The values below come from paper PMC5612753, “New lipases by mining of Pleurotus ostreatus genome” (PLoS ONE, 2017).

For one experiment, the system named is T1, PleoLip369.
T1 construct: signal peptide removed, codon-optimised synthetic gene behind alpha-factor signal, secreted from Pichia pastoris BG-10, purified by CM Sepharose; catalytic Ser266, Asp394, His512, pentapeptide GESAG
The experiment is described as follows: spectrophotometric p-nitrophenol release, […] nm; non-linear regression. The class given is biochemical, Pleurotus ostreatus. Particulars: pH 8; substrate 0.001-1 mM.

For a further experiment, the system named is T2, PleoLip241.
T2 construct: signal peptide removed, codon-optimised synthetic gene behind alpha-factor signal, secreted from Pichia pastoris BG-10, purified by CM Sepharose; catalytic Ser273, Asp403, His520, pentapeptide GQSAG
The description is as above. The class given is biochemical, Pleurotus ostreatus. As to conditions: pH 8; substrate 0.001-1 mM.

The term Km denotes the concentration of substrate that gives half-maximal velocity. Consider `CCCCCCCC(=O)Oc1ccc([N+](=O)[O-])cc1` [pNP-C8, p-nitrophenyl octanoate], for which the Km in the experiment on PleoLip369 came out at 510 ± 60 µM.
`CCCCCCCCCC(=O)Oc1ccc([N+](=O)[O-])cc1` [pNP-C10, p-nitrophenyl decanoate]: the Km in the experiment with PleoLip369 amounted to 130 ± 20 µM; in the experiment on PleoLip241 it was 30 ± 5 µM.
Turning to `CCCCCCCCCCCC(=O)Oc1ccc([N+](=O)[O-])cc1` [pNP-C12, p-nitrophenyl dodecanoate], the Km in the experiment with PleoLip369 turned out to be 652 ± 75 µM; with PleoLip241 it was 150 ± 6 µM.
For `CCCCCCCCCCCCCC(=O)Oc1ccc([N+](=O)[O-])cc1` [pNP-C14, p-nitrophenyl myristate], the Km in the experiment with PleoLip241 stood at 85 ± 4 µM.
Consider `CCCCCCCCCCCCCCCC(=O)Oc1ccc([N+](=O)[O-])cc1` [pNP-C16, p-nitrophenyl palmitate], for which the Km in the experiment with PleoLip241 is 350 ± 38 µM.
